Drawing on ChEMBL document CHEMBL1146902, “Antifungal anthraquinones from Saprosma fragrans” (2006), this text covers MIC for three compounds.

≈ marks a conversion by molar mass, not a printed value.

For orientation: MIC means the smallest concentration in the dilution series that meets the test's criterion for growth inhibition. Low values mean greater potency, high ones weaker potency.

In one assay the test system is Trichophyton benhamiae. As to the kind of experiment: Antifungal activity against Trichophyton mentagrophytes. The assay is classed as functional, Arthroderma benhamiae.
For the compound `Clc1ccccc1C(c1ccccc1)(c1ccccc1)n1ccnc1` [CLOTRIMAZOLE], the minimum inhibitory concentration (MIC) amounted to 0.39 mg/L (≈ 1.13 µM).

Take `COc1c(C=O)c(O)c(O)c2c1C(=O)c1ccccc1C2=O`: the lowest concentration to inhibit growth (MIC) was 12.5 mg/L (≈ 41.9 µM).

`COc1c(C=O)c(O)cc2c1C(=O)c1ccccc1C2=O` [DAMNACANTHAL] displayed an MIC of 1.56 mg/L (≈ 5.53 µM).

A further assay relates to Candida albicans. As to the kind of experiment: Antifungal activity against Candida albicans. The assay is classed as functional.
In turn, `Clc1ccccc1C(c1ccccc1)(c1ccccc1)n1ccnc1` [CLOTRIMAZOLE] returned an MIC of 3.1 mg/L (≈ 8.99 µM).

In turn, `COc1c(C=O)c(O)c(O)c2c1C(=O)c1ccccc1C2=O` gave an MIC of 50 mg/L (≈ 168 µM).

The compound `COc1c(C=O)c(O)cc2c1C(=O)c1ccccc1C2=O` [DAMNACANTHAL] registered a minimum inhibitory concentration (MIC) of 50 mg/L (≈ 177 µM).

A further assay concerns Aspergillus fumigatus. The assay is described as follows: Antifungal activity against Aspergillus fumigatus. Format: functional.
`Clc1ccccc1C(c1ccccc1)(c1ccccc1)n1ccnc1` [CLOTRIMAZOLE] had an MIC of 1.56 mg/L (≈ 4.52 µM).

Compound `COc1c(C=O)c(O)c(O)c2c1C(=O)c1ccccc1C2=O` gave an MIC above 100 mg/L.

The compound `COc1c(C=O)c(O)cc2c1C(=O)c1ccccc1C2=O` [DAMNACANTHAL] yielded a minimum inhibitory concentration (MIC) of 50 mg/L (≈ 177 µM).

Another assay has as its system Sporothrix schenckii. The assay is described as follows: Antifungal activity against Sporothrix schenckii. Format: functional.
Take `Clc1ccccc1C(c1ccccc1)(c1ccccc1)n1ccnc1` [CLOTRIMAZOLE]: the MIC is 1.56 mg/L (≈ 4.52 µM).

Turning to `COc1c(C=O)c(O)c(O)c2c1C(=O)c1ccccc1C2=O`, inhibition of growth (MIC) required 25 mg/L (≈ 83.8 µM).

As for `COc1c(C=O)c(O)cc2c1C(=O)c1ccccc1C2=O` [DAMNACANTHAL], the lowest concentration to inhibit growth (MIC) was 6.25 mg/L (≈ 22.1 µM).

Another assay concerns Cryptococcus neoformans. The assay is described as follows: Antifungal activity against Cryptococcus neoformans. The assay is classed as functional.
With `Clc1ccccc1C(c1ccccc1)(c1ccccc1)n1ccnc1` [CLOTRIMAZOLE], the lowest concentration to inhibit growth (MIC) was 0.09 mg/L (≈ 0.261 µM).

For `COc1c(C=O)c(O)c(O)c2c1C(=O)c1ccccc1C2=O`, the MIC is 50 mg/L (≈ 168 µM).

Compound `COc1c(C=O)c(O)cc2c1C(=O)c1ccccc1C2=O` [DAMNACANTHAL] registered an MIC of 12.5 mg/L (≈ 44.3 µM).
